According to ChEMBL document CHEMBL3880410, “Novel oxabispidine compounds and their use in the treatment of cardiac arrhythmias” (2009):

Test system: Cavia porcellus
Test: Anti-cardiac arrhythmia activity in anaesthetised guinea pig assessed as cumulative dose inducing prolongation of monophasic action potential duration by 10% from baseline administered as first dose infusion in 0.2 mL/kg into jugular vein catheter for 30 secs followed by next dosing after 5 mins for 6 to 10 consecutive times by electrophysiology based assay
Type: functional

SMILES	D10
N#Cc1ccc(OCCCN2CC3CN(CCNS(=O)(=O)c4ccccc4OC(F)(F)F)CC(C2)O3)cc1	>5.5 mg/kg
CC(C)S(=O)(=O)NCCN1CC2CN(CCCOc3ccc(C#N)cc3)CC(C1)O2	>5.5 mg/kg
N#Cc1ccc(OCCCN2CC3CN(CCNS(=O)(=O)Cc4ccccc4)CC(C2)O3)cc1	>5.5 mg/kg
N#Cc1ccc(OCCN2CC3CN(CCNS(=O)(=O)Cc4ccc(C(F)(F)F)cc4)CC(C2)O3)cc1	>5.5 mg/kg
Cn1cnc(S(=O)(=O)NCCN2CC3CN(CCCOc4ccc(C#N)cc4)CC(C2)O3)c1	>5.5 mg/kg
N#Cc1ccc(S(=O)(=O)NCCN2CC3CN(CCc4ccc(F)cc4)CC(C2)O3)cc1	>5.5 mg/kg
N#Cc1ccc(OCCN2CC3CN(CCNS(=O)(=O)Cc4cccc(Cl)c4)CC(C2)O3)cc1	>5.5 mg/kg
N#Cc1ccc(S(=O)(=O)NCCN2CC3CN(CCOc4ccc(F)cc4)CC(C2)O3)cc1	>5.5 mg/kg
N#Cc1ccc(OCCN2CC3CN(CCNS(=O)(=O)c4ccccc4)CC(C2)O3)cc1	>5.5 mg/kg
CC(C)(C)NS(=O)(=O)CCCN1CC2CN(CCCOc3ccc(C#N)cc3)CC(C1)O2	>5.5 mg/kg
CC(C)S(=O)(=O)NCCN1CC2CN(C[C@H](O)COc3ccc(C#N)cc3)CC(C1)O2	>5.5 mg/kg
N#Cc1ccc(OCCN2CC3CN(CCNS(=O)(=O)c4ccc(F)cc4)CC(C2)O3)cc1	>5.5 mg/kg
Cc1nn(C)c(Cl)c1S(=O)(=O)NCCN1CC2CN(CCOc3ccc(C#N)cc3)CC(C1)O2	>5.5 mg/kg
N#Cc1ccc(OCCCN2CC3CN(CCNS(=O)(=O)c4ccc(F)cc4F)CC(C2)O3)cc1	>5.5 mg/kg
N#Cc1ccc(CN2CC3CN(CCNS(=O)(=O)c4ccc(C#N)cc4)CC(C2)O3)cc1	>5.5 mg/kg
CS(=O)(=O)NCCN1CC2CN(CCOc3ccc(C#N)cc3)CC(C1)O2	>5.5 mg/kg
N#Cc1ccc(OCCCN2CC3CN(CCNS(=O)(=O)c4ccc(F)cc4)CC(C2)O3)cc1	>5.5 mg/kg

SMILES	D10
Cn1cnc(S(=O)(=O)NCCN2CC3CN(CCOc4ccc(C#N)cc4)CC(C2)O3)c1	>5.5 mg/kg
Cc1noc(C)c1S(=O)(=O)NCCN1CC2CN(CCCOc3ccc(C#N)cc3)CC(C1)O2	>5.5 mg/kg
CCCCS(=O)(=O)NCCN1CC2CN(CCCOc3ccc(C#N)cc3)CC(C1)O2	>5.5 mg/kg
N#Cc1ccc(OCCCN2CC3CN(CCNS(=O)(=O)Cc4ccc(C(F)(F)F)cc4)CC(C2)O3)cc1	>5.5 mg/kg
N#Cc1ccc(OCCCN2CC3CN(CCNS(=O)(=O)c4ccccc4)CC(C2)O3)cc1	>5.5 mg/kg
N#Cc1ccc(OCCCN2CC3CN(CCNS(=O)(=O)C(F)(F)F)CC(C2)O3)cc1	>5.5 mg/kg
N#Cc1ccc(OCCN2CC3CN(CCNS(=O)(=O)Cc4ccccc4)CC(C2)O3)cc1	>5.5 mg/kg
N#Cc1ccc(S(=O)(=O)NCCN2CC3CN(CCCOc4ccc(F)cc4)CC(C2)O3)cc1	>5.5 mg/kg
N#Cc1ccc(S(=O)(=O)NCCN2CC3CN(Cc4ccc(OC(F)F)cc4)CC(C2)O3)cc1	>5.5 mg/kg
N#Cc1ccc(OCCCN2CC3CN(CCNS(=O)(=O)c4ccc(C#N)cc4)CC(C2)O3)cc1	>5.5 mg/kg
CS(=O)(=O)NCCN1CC2CN(CCCOc3ccc(C#N)cc3)CC(C1)O2	>5.5 mg/kg
N#Cc1ccc(OCCN2CC3CN(CCNS(=O)(=O)c4ccc5c(c4)CCO5)CC(C2)O3)cc1	>5.5 mg/kg
N#Cc1ccc(OCCN2CC3CN(CCNS(=O)(=O)c4ccc(C#N)cc4)CC(C2)O3)cc1	>5.5 mg/kg
O=S(=O)(NCCN1CC2CN(Cc3ccccc3)CC(C1)O2)c1ccc(F)cc1	>5.5 mg/kg
CC(C)(C)OC(=O)NCCN1CC2CN(CCNS(=O)(=O)c3ccc(F)cc3)CC(C1)O2	>5.5 mg/kg
N#Cc1ccc(OCCCN2CC3CN(CCNS(=O)(=O)Cc4cccc(Cl)c4)CC(C2)O3)cc1	>5.5 mg/kg
N#Cc1ccc(S(=O)(=O)NCCN2CC3CN(Cc4ccc(F)cc4)CC(C2)O3)cc1	>5.5 mg/kg
